Target: T1, α2C receptor (Homo sapiens, UniProt P18825)
T1 sequence (P18825 1-462): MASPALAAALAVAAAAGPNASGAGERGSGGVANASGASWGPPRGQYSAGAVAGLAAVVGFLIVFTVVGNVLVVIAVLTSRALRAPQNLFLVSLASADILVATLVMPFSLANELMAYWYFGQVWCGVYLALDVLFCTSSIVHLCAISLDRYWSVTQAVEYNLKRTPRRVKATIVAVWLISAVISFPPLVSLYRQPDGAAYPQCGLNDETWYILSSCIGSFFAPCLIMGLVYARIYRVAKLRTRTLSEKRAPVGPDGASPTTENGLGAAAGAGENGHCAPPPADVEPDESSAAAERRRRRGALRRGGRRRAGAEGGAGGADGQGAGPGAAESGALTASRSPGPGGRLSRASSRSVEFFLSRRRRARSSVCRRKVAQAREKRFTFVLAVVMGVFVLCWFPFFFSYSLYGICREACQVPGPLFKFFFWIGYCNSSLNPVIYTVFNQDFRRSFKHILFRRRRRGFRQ
Assay: GTPγS assay, efficacy agonist activity (Emax) for α2C
Assay type: biochemical
Conditions: active agonist = efficacy at α2C ≧30% Emax; functionally selective = additionally efficacy at α2A ≦30% Emax (GTPγS assay)
Description: For the purposes of this present invention, a compound is defined to be an active agonist of the α2C receptor subtype if the compound's efficacy at the α2C receptor is ≧30% Emax (GTPγS assay). A compound is a functionally selective agonist of the α2C receptor subtype over the α2A receptor subtype if the compound's efficacy at the α2C receptor is ≧30% Emax (GTPγS assay) and its efficacy at the α2A receptor is ≦30% Emax (GTPγS assay).
Efficacy agonist activity values (Emax, GTPγS assay) for α2C were determined by following the general procedure detailed by Umland et al (“Receptor reserve analysis of the human α2c-adrenoceptor using [^35S]GTPγS and cAMP functional assays” European Journal of Pharmacology 2001, 411, 211-221). For the purposes of the present invention, a compound is defined to be an active agonist of the α2C receptor subtype if the compound's efficacy at the α2C receptor is ≧30% Emax (GTPγS assay). A compound is a functionally selective agonist of the α2C receptor subtype over the α2A receptor subtype if the compound's efficacy at the α2C receptor is […] Emax (GTPγS assay) and its efficacy at the α2A receptor is ≦30% Emax (GTPγS assay).

Compound | Efficacy agonist activity (Emax, GTPγS assay) for α2C: evaluated as active or functionally selective agonist
N#Cc1ccc2c(n1)N(Cc1c[nH]cn1)CCO2 [Compound 55] | active or functionally selective agonists of the α2C receptor subtype
COC(=O)Nc1cc(O)c2c(c1)N(Cc1c[nH]cn1)CCO2 [Compound 57] | active or functionally selective agonists of the α2C receptor subtype
CNC(=O)N(C)c1ccc2c(c1)N(CCc1c[nH]cn1)CCO2 [Compound 58] | active or functionally selective agonists of the α2C receptor subtype
CCN(C(=O)OCc1ccnc(N)c1)c1ccc2c(c1)N(Cc1c[nH]cn1)CCO2 [Compound 63] | active or functionally selective agonists of the α2C receptor subtype
CCN(C(=O)n1ccnc1)c1ccc2c(c1)N(Cc1c[nH]cn1)CCO2 [Compound 64A] | active or functionally selective agonists of the α2C receptor subtype
CCN(C(=O)OCc1ccccn1)c1ccc2c(c1)N(Cc1c[nH]cn1)CCO2 [Compound 64] | active or functionally selective agonists of the α2C receptor subtype
CCN(C(=O)OCc1ccc(S(C)(=O)=O)cc1)c1ccc2c(c1)N(Cc1c[nH]cn1)CCO2 [Compound 65] | active or functionally selective agonists of the α2C receptor subtype
COC(=O)Cc1ccc2c(c1)N(Cc1c[nH]cn1)CCO2 [Compound 114] | active or functionally selective agonists of the α2C receptor subtype
c1cnc2c(c1)OCCN2Cc1c[nH]cn1 [Compound 117] | active or functionally selective agonists of the α2C receptor subtype
Fc1cc(Br)cc2c1OCCN2Cc1c[nH]cn1 [Compound 124] | active or functionally selective agonists of the α2C receptor subtype
N#Cc1cc(F)c2c(c1)N(Cc1c[nH]cn1)CCO2 [Compound 125] | active or functionally selective agonists of the α2C receptor subtype
Cc1cc([N+](=O)[O-])cc2c1OCCN2Cc1c[nH]cn1 [Compound 129] | active or functionally selective agonists of the α2C receptor subtype
COC(=O)Nc1cc(C)c2c(c1)N(Cc1c[nH]cn1)CCO2 [Compound 130] | active or functionally selective agonists of the α2C receptor subtype
O=CNc1cc(F)c2c(c1)N(Cc1c[nH]cn1)CCO2 [Compound 132] | active or functionally selective agonists of the α2C receptor subtype
CNC(=O)N(C)c1cc(F)c2c(c1)N(Cc1c[nH]cn1)CCO2 [Compound 134] | active or functionally selective agonists of the α2C receptor subtype
COC(=O)N(C)c1cc(F)c2c(c1)N(Cc1c[nH]cn1)CCO2 [Compound 135] | active or functionally selective agonists of the α2C receptor subtype
COC(=O)Nc1ccc2c(n1)N(Cc1c[nH]cn1)CCO2 [Compound 137] | active or functionally selective agonists of the α2C receptor subtype
COC(=O)Nc1ccc2c(c1)N(CCc1c[nH]cn1)CCO2 [Compound 139] | active or functionally selective agonists of the α2C receptor subtype
CN(C)S(=O)(=O)Nc1ccc2c(c1)N(Cc1c[nH]cn1)CCS2 [Compound 142] | active or functionally selective agonists of the α2C receptor subtype
CNC(=O)N(C)c1ccc2c(c1)N(Cc1c[nH]cn1)CCS2 [Compound 144] | active or functionally selective agonists of the α2C receptor subtype
FC(F)(F)c1ccc2c(c1)N(Cc1c[nH]cn1)CCS2 [Compound 145] | active or functionally selective agonists of the α2C receptor subtype

Compound | Efficacy agonist activity (Emax, GTPγS assay) for α2C: evaluated as active or functionally selective agonist
COc1ccc(-c2ccc3c(c2)N(Cc2c[nH]cn2)CCO3)cn1 [Compound 148] | active or functionally selective agonists of the α2C receptor subtype
CCN(C(=O)OC)c1ccc2c(c1)N(Cc1c[nH]cn1)CCO2 [Compound 151] | active or functionally selective agonists of the α2C receptor subtype
N=C(N)c1cc(F)c2c(c1)N(Cc1c[nH]cn1)CCO2 [Compound 152] | active or functionally selective agonists of the α2C receptor subtype
CCN(C(C)=O)c1ccc2c(c1)N(Cc1c[nH]cn1)CCO2 [Compound 158] | active or functionally selective agonists of the α2C receptor subtype
CCOC(=O)N(CC)c1ccc2c(c1)N(Cc1c[nH]cn1)CCO2 [Compound 159] | active or functionally selective agonists of the α2C receptor subtype
CCN(C(=O)OCCOC)c1ccc2c(c1)N(Cc1c[nH]cn1)CCO2 [Compound 160] | active or functionally selective agonists of the α2C receptor subtype
CC#CCOC(=O)N(CC)c1ccc2c(c1)N(Cc1c[nH]cn1)CCO2 [Compound 162] | active or functionally selective agonists of the α2C receptor subtype
CCN(C(=O)COC)c1ccc2c(c1)N(Cc1c[nH]cn1)CCO2 [Compound 163] | active or functionally selective agonists of the α2C receptor subtype
CCN(C(=O)CCOC)c1ccc2c(c1)N(Cc1c[nH]cn1)CCO2 [Compound 164] | active or functionally selective agonists of the α2C receptor subtype
CCN(C(=O)COCCOC)c1ccc2c(c1)N(Cc1c[nH]cn1)CCO2 [Compound 165] | active or functionally selective agonists of the α2C receptor subtype
CCN(C(=O)CCCc1ccccc1)c1ccc2c(c1)N(Cc1c[nH]cn1)CCO2 [Compound 167] | active or functionally selective agonists of the α2C receptor subtype
CNC(=O)N(C)c1ccc2c(c1)N(C(C#N)c1c[nH]cn1)CCO2 (centres unmarked) [Compound 168] | active or functionally selective agonists of the α2C receptor subtype
CCN(C(=O)NC)c1ccc2c(c1)N(C(C#N)c1c[nH]cn1)CCO2 (centres unmarked) [Compound 169] | active or functionally selective agonists of the α2C receptor subtype
COC(=O)Nc1ccc2c(c1)N(C(C#N)c1c[nH]cn1)CCO2 (centres unmarked) [Compound 171] | active or functionally selective agonists of the α2C receptor subtype
CCN(C(=O)OC)c1cc(F)c2c(c1)N(Cc1c[nH]cn1)CCO2 [Compound 178] | active or functionally selective agonists of the α2C receptor subtype
COC(=O)Nc1cc(F)c2c(c1)N(C(C#N)c1c[nH]cn1)CCO2 (centres unmarked) [Compound 181] | active or functionally selective agonists of the α2C receptor subtype
CNC(=O)N(C)c1ccc2c(c1)N(Cc1c[nH]cn1)CCCO2 [Compound 223] | active or functionally selective agonists of the α2C receptor subtype
COCCOC(=O)N(C)c1ccc2c(n1)N(Cc1c[nH]cn1)CCO2 [Compound 231] | active or functionally selective agonists of the α2C receptor subtype
CNC(=O)N(C)c1cc(Cl)c2c(c1)N(Cc1c[nH]cn1)CCO2 [Compound 232] | active or functionally selective agonists of the α2C receptor subtype
CONC(=O)N(C)c1cc(Cl)c2c(c1)N(Cc1c[nH]cn1)CCO2 [Compound 235] | active or functionally selective agonists of the α2C receptor subtype

— patent US7700592B2, “α2C adrenoreceptor agonists” (Schering Corporation, priority 2005, dated 2010)
